Data set [1] deals with T1, P-gp (MDR1/ABCB1) (Homo sapiens, UniProt P08183).
T1 construct: Caco-2 cells; endogenous in cells; host or cells: Caco-2 cells
The experiment in a line: Inhibition of transporters, P-gp (Caco-2 cells, digoxin). In kind it is in vitro ADME.

The nature of data set [2]: Models of protein nitration. The following applies: physiological conditions (neutral pH). In kind it is biochemical.
Data set [3] deals with T2, OAT3 (Homo sapiens, UniProt Q8TCC7).
T2 construct: expressed in transfected cells; host or cells: HEK293 cells
T2 sequence (Q8TCC7 1-542): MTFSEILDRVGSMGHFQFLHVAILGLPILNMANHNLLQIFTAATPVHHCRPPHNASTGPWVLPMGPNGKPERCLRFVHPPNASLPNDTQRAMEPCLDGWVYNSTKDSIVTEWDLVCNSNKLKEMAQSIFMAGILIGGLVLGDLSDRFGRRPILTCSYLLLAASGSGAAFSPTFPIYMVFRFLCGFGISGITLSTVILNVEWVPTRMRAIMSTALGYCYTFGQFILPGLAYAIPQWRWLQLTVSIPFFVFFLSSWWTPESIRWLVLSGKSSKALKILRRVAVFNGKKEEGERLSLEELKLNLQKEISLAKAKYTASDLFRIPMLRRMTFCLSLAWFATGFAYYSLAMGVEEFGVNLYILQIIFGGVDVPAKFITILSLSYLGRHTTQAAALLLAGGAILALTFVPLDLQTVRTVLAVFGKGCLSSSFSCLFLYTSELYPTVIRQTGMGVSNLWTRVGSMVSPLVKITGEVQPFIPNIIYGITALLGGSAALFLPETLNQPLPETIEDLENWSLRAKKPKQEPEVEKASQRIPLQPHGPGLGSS
The experiment in a line: Inhibition of transporters, OAT3 (HEK293 cells). In kind it is in vitro ADME.

Data set [4] has as its system streptozotocin (STZ)-induced diabetic rats. The experiment in a line: Mechanical thresholds in streptozotocin (STZ)-induced diabetic rats. In kind it is in vivo, rat. How it is done:
Experiments were conducted to determine the effect of Compound 1 in streptozotocin (STZ)-induced diabetic rats. In the first experiment, after obtaining mechanical threshold baselines, STZ (50 mg/kg IV) was administered (Day −7). Two days later, blood glucose levels were measured and animals that were hyperglycemic (>250 mg/dL) continued in the study. On Day 0 the baseline for mechanical thresholds prior to dosing with test articles was established for the rats. Compound 1 (10, 30, and 100 mg/kg PO), gabapentin (100 mg/kg PO) or vehicle was then administered daily for 5 days. On Day 0 mechanical thresholds were obtained at 1, 3, and 6 h post-dose. On Day 1 mechanical thresholds were measured immediately prior to dosing and then 3 h post-dose. The same regimen was followed on Day 3.
In a subsequent study, the same STZ paradigm was followed. However, in addition to the 100 mg/kg Compound 1 group, two additional cohorts received the Compound 1 100 mg/kg dose split into two or three doses per day with 50 mg/kg BID and 33 mg/kg TID. In addition to the gabapentin (100 mg/kg PO) group, a separate cohort received duloxetine (30 mg/kg PO). Additionally, in this study mechanical threshold testing was implemented every day immediately prior to dosing and 2 h post-dose for 7 days.

Data set [5] addresses T3, OATP1B1 (Homo sapiens, UniProt Q9Y6L6).
T3 construct: expressed in transfected cells; host or cells: HEK293 cells
T3 sequence (Q9Y6L6 1-691): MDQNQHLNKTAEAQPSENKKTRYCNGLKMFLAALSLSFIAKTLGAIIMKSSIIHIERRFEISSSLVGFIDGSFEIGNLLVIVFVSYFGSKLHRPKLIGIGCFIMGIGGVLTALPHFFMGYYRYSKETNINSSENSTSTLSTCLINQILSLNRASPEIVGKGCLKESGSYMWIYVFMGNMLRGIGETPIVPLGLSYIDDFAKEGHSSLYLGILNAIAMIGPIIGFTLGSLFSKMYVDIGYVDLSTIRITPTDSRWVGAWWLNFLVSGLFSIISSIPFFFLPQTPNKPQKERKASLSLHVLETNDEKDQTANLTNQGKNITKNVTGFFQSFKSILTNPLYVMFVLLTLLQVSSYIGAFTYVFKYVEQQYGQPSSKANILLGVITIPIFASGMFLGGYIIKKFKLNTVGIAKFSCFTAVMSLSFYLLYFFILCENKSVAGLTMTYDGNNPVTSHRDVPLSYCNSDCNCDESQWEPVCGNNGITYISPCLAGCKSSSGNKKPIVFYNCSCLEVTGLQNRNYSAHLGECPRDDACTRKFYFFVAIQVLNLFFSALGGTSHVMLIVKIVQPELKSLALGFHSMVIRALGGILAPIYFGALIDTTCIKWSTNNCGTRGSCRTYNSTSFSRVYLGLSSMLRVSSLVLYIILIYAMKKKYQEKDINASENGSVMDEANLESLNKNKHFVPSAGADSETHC
The data set can be described thus: Inhibition of transporters, OATP1B1 (HEK293 cells). In kind it is in vitro ADME.

In data set [6] the target is T4, OAT1 (Homo sapiens, UniProt Q4U2R8).
T4 construct: expressed in transfected cells; host or cells: HEK293 cells
T4 sequence (Q4U2R8 1-563): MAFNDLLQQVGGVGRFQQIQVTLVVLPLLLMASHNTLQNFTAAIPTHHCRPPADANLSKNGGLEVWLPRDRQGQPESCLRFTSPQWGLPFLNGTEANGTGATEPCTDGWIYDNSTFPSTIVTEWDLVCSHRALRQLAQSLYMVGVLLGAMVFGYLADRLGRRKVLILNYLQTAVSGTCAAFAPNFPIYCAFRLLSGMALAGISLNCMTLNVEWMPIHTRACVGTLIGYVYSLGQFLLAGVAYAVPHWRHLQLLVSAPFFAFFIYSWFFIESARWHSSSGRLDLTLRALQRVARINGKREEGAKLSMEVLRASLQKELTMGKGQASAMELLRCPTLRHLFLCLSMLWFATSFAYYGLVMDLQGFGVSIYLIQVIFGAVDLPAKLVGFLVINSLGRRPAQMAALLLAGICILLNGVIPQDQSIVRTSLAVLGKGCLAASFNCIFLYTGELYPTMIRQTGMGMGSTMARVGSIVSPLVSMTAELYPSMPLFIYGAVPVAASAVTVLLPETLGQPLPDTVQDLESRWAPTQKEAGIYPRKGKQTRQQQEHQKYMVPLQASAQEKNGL
The data set can be described thus: Inhibition of transporters, OAT1 (HEK293 cells). In kind it is in vitro ADME.

Data set [7] in a line: Rat brain distribution and pharmacokinetic study. In kind it is in vivo. An excerpt:
A rat brain distribution study performed in order to determine standard pharmacokinetic parameters and to assess the brain penetration properties of Compound 1 administered orally and intravenously.

Data set [8] can be described thus: In vivo epimerization by chiral methods.

Where a name gives a salt, the structure may show the parent alone.

T1 sequence (P08183 whole entry): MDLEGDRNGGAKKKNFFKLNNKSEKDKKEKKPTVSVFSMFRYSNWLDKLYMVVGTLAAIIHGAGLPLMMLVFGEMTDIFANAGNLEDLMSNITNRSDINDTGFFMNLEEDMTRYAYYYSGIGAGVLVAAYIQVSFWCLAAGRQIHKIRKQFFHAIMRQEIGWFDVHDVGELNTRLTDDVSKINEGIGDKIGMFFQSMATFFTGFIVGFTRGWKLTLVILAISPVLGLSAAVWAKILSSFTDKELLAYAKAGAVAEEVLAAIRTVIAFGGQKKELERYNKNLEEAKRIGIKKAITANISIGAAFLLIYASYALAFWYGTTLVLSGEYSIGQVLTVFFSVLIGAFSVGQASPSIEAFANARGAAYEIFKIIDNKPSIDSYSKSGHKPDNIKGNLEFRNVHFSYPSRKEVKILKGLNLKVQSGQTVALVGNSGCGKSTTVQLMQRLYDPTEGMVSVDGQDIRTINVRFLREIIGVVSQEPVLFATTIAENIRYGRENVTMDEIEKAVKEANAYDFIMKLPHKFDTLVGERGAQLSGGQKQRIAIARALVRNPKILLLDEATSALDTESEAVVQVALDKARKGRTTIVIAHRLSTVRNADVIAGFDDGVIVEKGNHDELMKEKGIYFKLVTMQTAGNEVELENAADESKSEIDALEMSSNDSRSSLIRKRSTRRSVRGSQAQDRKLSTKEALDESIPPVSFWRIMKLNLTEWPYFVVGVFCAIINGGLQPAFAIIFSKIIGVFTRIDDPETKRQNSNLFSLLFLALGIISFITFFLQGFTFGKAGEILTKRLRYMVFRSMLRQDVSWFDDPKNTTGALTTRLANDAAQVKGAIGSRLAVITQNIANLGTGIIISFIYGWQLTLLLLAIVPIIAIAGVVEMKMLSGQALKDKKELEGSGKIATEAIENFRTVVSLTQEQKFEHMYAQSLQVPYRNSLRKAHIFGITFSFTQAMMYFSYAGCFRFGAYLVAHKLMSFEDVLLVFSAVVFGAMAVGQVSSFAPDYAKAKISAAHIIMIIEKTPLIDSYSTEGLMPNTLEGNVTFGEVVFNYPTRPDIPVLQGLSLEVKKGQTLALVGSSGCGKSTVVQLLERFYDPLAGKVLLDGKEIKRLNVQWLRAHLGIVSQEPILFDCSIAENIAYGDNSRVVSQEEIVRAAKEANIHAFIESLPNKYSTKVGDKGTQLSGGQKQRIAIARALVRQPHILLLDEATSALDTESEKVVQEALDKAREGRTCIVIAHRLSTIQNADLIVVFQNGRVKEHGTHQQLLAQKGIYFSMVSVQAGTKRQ

As for `CC1(C)SC(Nc2ccccc2O)=N[C@@H]1C(=O)O` [Compound 1, (R)-2-(2-hydroxyphenylamino)-5,5-dimethyl-4,5-dihydrothiazole-4-carboxylic acid mono-hydrochloride], in data set [1], the “inhibition of P-gp (in words)” value is on record as “does not inhibit”. For the same compound, the removal of peroxynitrite result in data set [2] was “catalytically remove peroxynitrite”. Moreover, the “inhibition of OAT3 (in words)” value in data set [3] is reported as “weakly inhibits”. For the same compound, the “reversal of allodynia (mechanical threshold relative to vehicle)” value in data set [4] (first experiment, 10, 30, 100 mg/kg PO daily, subsequent days) was “statistically-significant”. Besides, in data set [4] (first experiment, Compound 1 10, 30, 100 mg/kg PO, gabapentin 100 mg/kg PO daily, Day 0 (gabapentin: 1 h post-dose on Day 0 and all time points thereafter)), the “reversal of allodynia (mechanical threshold)” value was “non-significant reversal of allodynia”. For the same compound, the “effect on mechanical threshold compared with gabapentin” value in data set [4] (first experiment, subsequent days, gabapentin 100 mg/kg PO) was “comparable to gabapentin”. Also, in data set [4] (rat model of diabetic neuropathy, streptozotocin-induced (overview)), the effect on allodynia entry is recorded as “alleviates allodynia”. Further, the “difference between dosing regimens” value in data set [4] (subsequent study, 100 mg/kg QD vs 50 mg/kg BID vs 33 mg/kg TID) was “no clear difference”. In addition, in data set [4] (subsequent study, 7 days, Compound 1 100 mg/kg QD, 50 mg/kg BID, 33 mg/kg TID, gabapentin 100 mg/kg PO, duloxetine 30 mg/kg PO), the “reversal of allodynia (mechanical threshold)” value was “reversed allodynia upon continued daily dosing reaching statistical significance from Day 1 and beyond”. Besides, the “inhibition of OATP1B1 (in words)” value in data set [5] is “does not inhibit”. Also, the “inhibition of OAT1 (in words)” value in data set [6] is reported as “does not inhibit”. In data set [7] (overview), the “distribution to tissues and brain” value is reported as “distributes to tissues but not to brain to an appreciable extent”. The “bioavailability after oral administration” value in data set [7] (rat) is “bioavailable”. Further, the “elimination from the systemic circulation” value in data set [7] (rats) is reported as “moderate rate”. Moreover, in data set [7] (rats, 30 mg/kg oral dose), the Oral bioavailability is 111%; the oral absorption result was “rapidly and completely absorbed”; the peak plasma concentration came out at 9 µg/mL; the terminal half-life amounted to 1.6 h. For the same compound, in data set [7] (rats, 30 mg/kg oral dose), the “time to peak plasma concentration” value is at most 1 h. In addition, the epimerization in vivo result in data set [8] was “no epimerization”.

The record behind these values is US20200246317A1, “METHODS OF TREATING DIABETIC NEUROPATHY WITH A THIAZOLINE ANTI-HYPERALGESIC AGENT” (CERSCI THERAPEUTICS, INC., priority 2019, published 2020).
